Tests used:
human ALX receptor = biological target: T1, human ALX receptor (Homo sapiens, UniProt P25090); test: Intracellular calcium measurements (FLIPR), agonistic activity in HEK293-hALXR-Gα16 cells; type: cell-based; conditions: Fluo-4 calcium FLIPR, normalized to WKYMVm 10 nM
T1 construct: expressed in transfected cells; host or cells: HEK293 (HEK293-hALXR-Gα16)
T1 sequence (P25090 1-351): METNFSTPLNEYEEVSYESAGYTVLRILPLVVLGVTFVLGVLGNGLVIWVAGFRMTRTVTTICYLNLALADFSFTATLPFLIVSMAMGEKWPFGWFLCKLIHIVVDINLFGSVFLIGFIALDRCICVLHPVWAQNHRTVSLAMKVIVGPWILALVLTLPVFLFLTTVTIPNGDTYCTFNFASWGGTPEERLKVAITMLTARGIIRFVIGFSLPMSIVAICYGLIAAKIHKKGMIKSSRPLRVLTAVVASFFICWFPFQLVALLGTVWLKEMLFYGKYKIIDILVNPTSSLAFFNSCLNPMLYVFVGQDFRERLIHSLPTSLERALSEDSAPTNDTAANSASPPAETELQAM
In short: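 Agonist-induced calcium flux was recorded by FLIPR (488/540 nm) in HEK293-hALXR-Gα16 cells pre-loaded with Fluo-4 AM (1 μM, 60 min, 37°C). Peak signal above baseline, after subtracting buffer addition, was expressed relative to WKYMVm at 10 nM final.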

human FPRL2 = biological target: T2, human FPRL2 (Homo sapiens, UniProt P25089); test: Intracellular calcium measurements (FLIPR), agonistic activity in HEK293-hFPRL2-Gα16 cells; type: cell-based; conditions: Fluo-4 calcium FLIPR, normalized to GLY14-Humanin 100 nM
T2 construct: expressed in transfected cells; host or cells: HEK293 (HEK293-hFPRL2-Gα16)
T2 sequence (P25089 1-353): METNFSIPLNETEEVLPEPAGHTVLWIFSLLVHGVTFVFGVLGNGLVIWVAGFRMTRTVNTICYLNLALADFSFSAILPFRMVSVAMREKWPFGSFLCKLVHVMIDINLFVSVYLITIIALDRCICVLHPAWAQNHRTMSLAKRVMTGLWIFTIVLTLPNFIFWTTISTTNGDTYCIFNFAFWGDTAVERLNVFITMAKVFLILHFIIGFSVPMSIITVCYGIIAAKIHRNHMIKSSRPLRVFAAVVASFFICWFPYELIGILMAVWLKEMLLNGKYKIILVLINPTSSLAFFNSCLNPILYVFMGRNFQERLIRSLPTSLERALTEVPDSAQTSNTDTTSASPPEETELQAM
In short: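 Peak values after baseline subtraction are expressed relative to 100 nM Gly14-Humanin; compounds diluted in assay buffer from 10 mM DMSO stocks.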

Row | Compound | EC50 (human ALX receptor) | EC50 (human FPRL2)
1 | O=C(NCCCCN1CCCC1)[C@H]1[C@H](C(=O)NCc2ccc(I)cc2)[C@@H]2C=C[C@H]1C21CC1 (racemic) [Example 200, (5R*)—N^5-(4-Iodophenyl-methyl)-(6R*)—N^6-(4-pyrrolidin-1-yl-butyl)-(4S*,7R*)-[4,7-ethenylene-spiro[2.4]heptane]-5,6-dicarboxamide] | 0.042 µM | 0.236 µM
2 | CC(C)Cc1cc(CNC(=O)[C@H]2[C@H](C(=O)NCCCCN3CCCC3)[C@H]3C=C[C@@H]2C32CC2)no1 (racemic) [Example 201, (5R*)—N^5-(5-(iso-Butyl)-isoxazol-3-yl-methyl)-(6R*)—N^6-(4-pyrrolidin-1-yl-butyl)-(4S*,7R*)-[4,7-ethenylene-spiro[2.4]heptane]-5,6-dicarboxamide] | 0.093 µM | 1.44 µM
3 | O=C(NCCCCN1CCCC1)[C@H]1[C@H](C(=O)NCc2csc(Br)c2)[C@@H]2C=C[C@H]1C21CC1 (racemic) [Example 202, (5R*)—N^5-(2-Bromo-thiophen-4-yl-methyl)-(6R*)—N^6-(4-pyrrolidin-1-yl-butyl)-(4S*,7R*)-[4,7-ethenylene-spiro[2.4]heptane]-5,6-dicarboxamide] | 0.033 µM | 0.075 µM
4 | O=C(NCCCCN1CCCC1)[C@H]1[C@H](C(=O)NCc2ccc(Br)cc2F)[C@@H]2C=C[C@H]1C21CC1 (racemic) [Example 203, (5R*)—N^5-(2-Fluoro-4-bromophenyl-methyl)-(6R*)—N^6-(4-pyrrolidin-1-yl-butyl)-(4S*,7R*)-[4,7-ethenylene-spiro[2.4]heptane]-5,6-dicarboxamide] | 0.024 µM | 0.2 µM
5 | CN(C)C(=O)CCNC(=O)[C@H]1[C@H](C(=O)Nc2ccc(Br)cc2)[C@@H]2C=C[C@H]1C21CC1 (racemic) [Example 204, (5R*)—N^5-(4-Bromophenyl)-(6R*)—N^6-(3-dimethylamino-3-oxopropyl)-(4S*,7R*)-[4,7-ethenylene-spiro[2.4]heptane]-5,6-dicarboxamide] | 0.0034 µM | 2.08 µM
6 | NC(=O)CCCNC(=O)[C@H]1[C@H](C(=O)Nc2ccc(Br)cc2)[C@@H]2C=C[C@H]1C21CC1 (racemic) [Example 205, (5R*)—N^5-(4-Bromophenyl)-(6R*)—N^6-(4-amino-4-oxobutyl)-(4S*,7R*)-[4,7-ethenylene-spiro[2.4]heptane]-5,6-dicarboxamide] | 0.0073 µM | 4.78 µM
7 | O=C(NCCC(=O)N1CCCC1)[C@H]1[C@H](C(=O)Nc2ccc(Br)cc2)[C@@H]2C=C[C@H]1C21CC1 (racemic) [Example 206, (5R*)—N^5-(4-Bromophenyl)-(6R*)—N^6-(3-pyrrolidino-3-oxopropyl)-(4S*,7R*)-[4,7-ethenylene-spiro[2.4]heptane]-5,6-dicarboxamide] | 0.031 µM | 2.98 µM
8 | NC(=O)CNC(=O)[C@H]1[C@H](C(=O)Nc2ccc(Br)cc2)[C@@H]2C=C[C@H]1C21CC1 (racemic) [Example 207, (5R*)—N^5-(4-Bromophenyl)-(6R*)—N^6-(2-amino-2-oxoethyl)-(4S*,7R*)-[4,7-ethenylene-spiro[2.4]heptane]-5,6-dicarboxamide] | 0.0065 µM | 7.43 µM
9 | CNC(=O)CCNC(=O)[C@H]1[C@H](C(=O)Nc2ccc(Br)cc2)[C@@H]2C=C[C@H]1C21CC1 (racemic) [Example 223, (5R*)—N^5-(4-Bromophenyl)-(6R*)—N^6-(3-methylamino-3-oxopropyl)-(4S*,7R*)-[4,7-ethenylene-spiro[2.4]heptane]-5,6-dicarboxamide] | 0.0032 µM | 1.21 µM
10 | CC(=O)c1ncc(CNC(=O)[C@H]2[C@H](C(=O)NCCCCN3CCCC3)[C@H]3C=C[C@@H]2C32CC2)s1 (racemic) [Example 224, (5R*)—N^5-(2-Acetyl-thiazol-5-yl-methyl)-(6R*)—N^6-(4-pyrrolidin-1-yl-butyl)-(4S*,7R*)-[4,7-ethenylene-spiro[2.4]heptane]-5,6-dicarboxamide] | 0.994 µM | 1.86 µM
11 | COc1cc(F)c(CNC(=O)[C@H]2[C@H](C(=O)NCCCCN3CCCC3)[C@H]3C=C[C@@H]2C32CC2)c(F)c1 (racemic) [Example 226, (5R*)—N^5-(2,6-Difluoro-4-methoxy-phenyl-methyl)-(6R*)—N^6-(4-pyrrolidin-1-yl-butyl)-(4S*,7R*)-[4,7-ethenylene-spiro[2.4]heptane]-5,6-dicarboxamide] | 0.912 µM | 0.356 µM
12 | COc1ccc(CNC(=O)[C@H]2[C@H](C(=O)NCCCCN3CCCC3)[C@H]3C=C[C@@H]2C32CC2)c(F)c1F (racemic) [Example 227, (5R*)—N^5-(2,3-Difluoro-4-methoxy-phenyl-methyl)-(6R*)—N^6-(4-pyrrolidin-1-yl-butyl)-(4S*,7R*)-[4,7-ethenylene-spiro[2.4]heptane]-5,6-dicarboxamide] | 0.29 µM | 0.089 µM
13 | COc1ccc(CNC(=O)[C@H]2[C@H](C(=O)NCCCCN3CCCC3)[C@H]3C=C[C@@H]2C32CC2)cc1F (racemic) [Example 228, (5R*)—N^5-(3-Fluoro-4-methoxy-phenyl-methyl)-(6R*)—N^6-(4-pyrrolidin-1-yl-butyl)-(4S*,7R*)-[4,7-ethenylene-spiro[2.4]heptane]-5,6-dicarboxamide] | 0.389 µM | 0.308 µM
14 | COc1c(F)cc(CNC(=O)[C@H]2[C@H](C(=O)NCCCCN3CCCC3)[C@H]3C=C[C@@H]2C32CC2)cc1F (racemic) [Example 229, (5R*)—N^5-(3,5-Difluoro-4-methoxy-phenyl-methyl)-(6R*)—N^6-(4-pyrrolidin-1-yl-butyl)-(4S*,7R*)-[4,7-ethenylene-spiro[2.4]heptane]-5,6-dicarboxamide] | 0.119 µM | 0.067 µM
15 | O=C(NCCCCN1CCCC1)[C@H]1[C@H](C(=O)NCc2ccc(Cl)cc2)[C@@H]2C=C[C@H]1C21CC1 (racemic) [Example 230, (5R*)—N^5-(4-Chloro-phenyl-methyl)-(6R*)—N^6-(4-pyrrolidin-1-yl-butyl)-(4S*,7R*)-[4,7-ethenylene-spiro[2.4]heptane]-5,6-dicarboxamide] | 0.031 µM | 0.065 µM
16 | O=C(NCCCCN1CCCC1)[C@H]1[C@H](C(=O)NCc2ccc(F)cc2)[C@@H]2C=C[C@H]1C21CC1 (racemic) [Example 231, (5R*)—N^5-(4-Fluoro-phenyl-methyl)-(6R*)—N^6-(4-pyrrolidin-1-yl-butyl)-(4S*,7R*)-[4,7-ethenylene-spiro[2.4]heptane]-5,6-dicarboxamide] | 0.514 µM | 0.159 µM
17 | O=C(NCCCCN1CCCC1)[C@H]1[C@H](C(=O)NCc2ccc(OC(F)(F)F)cc2)[C@@H]2C=C[C@H]1C21CC1 (racemic) [Example 232, (5R*)—N^5-(4-Trifluoromethoxy-phenyl-methyl)-(6R*)—N^6-(4-pyrrolidin-1-yl-butyl)-(4S*,7R*)-[4,7-ethenylene-spiro[2.4]heptane]-5,6-dicarboxamide] | 1.26 µM | 0.112 µM
18 | CC(C)Oc1ccc(CNC(=O)[C@H]2[C@H](C(=O)NCCCCN3CCCC3)[C@H]3C=C[C@@H]2C32CC2)cc1 (racemic) [Example 233, (5R*)—N^5-(4-Isopropoxy-phenyl-methyl)-(6R*)—N^6-(4-pyrrolidin-1-yl-butyl)-(4S*,7R*)-[4,7-ethenylene-spiro[2.4]heptane]-5,6-dicarboxamide] | 7.22 µM | 0.197 µM
19 | O=C(NCCCCN1CCCC1)[C@H]1[C@H](C(=O)NCc2nc(Br)cs2)[C@@H]2C=C[C@H]1C21CC1 (racemic) [Example 234, (5R*)—N^5-(4-Bromo-thiazol-2-yl-methyl)-(6R*)—N^6-(4-pyrrolidin-1-yl-butyl)-(4S*,7R*)-[4,7-ethenylene-spiro[2.4]heptane]-5,6-dicarboxamide] | 0.073 µM | 0.176 µM
20 | CC(=O)c1nc(CNC(=O)[C@H]2[C@H](C(=O)NCCCCN3CCCC3)[C@H]3C=C[C@@H]2C32CC2)co1 (racemic) [Example 235, (5R*)—N^5-(2-Acetyl-oxazol-4-yl-methyl)-(6R*)—N^6-(4-pyrrolidin-1-yl-butyl)-(4S*,7R*)-[4,7-ethenylene-spiro[2.4]heptane]-5,6-dicarboxamide] | 0.153 µM | 0.181 µM

Source: US8563714B2, “Bridged spiro [2.4] heptane derivatives as ALX receptor and/or FPRL2 agonists” (Actelion Pharmaceuticals Ltd., priority 2009, dated 2013)
